In ChEMBL document CHEMBL1201862, “PubChem BioAssay data set” (2004):
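Step 1: Grow cells in 96-well plates. Step 2: Expose to compound for 48 hours at 5 concentrations. Step 3: Interpolate endpoints linearly; if unreached, use highest concentration. GI50 is the concentration that inhibits growth by half.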 Calls of active or inactive are those of the source. Rule as the data show it: active = GI50 up to about 1.1 µM and inactive = higher. *1 amine or outer side, *2 acyl side, *3 side chain or, on linkers, in order; H or OH if unused. Bridge positions count the residues as written; N and C are the ends. Where a SMILES comes first, the peptide text is derived from it. Square brackets hold non-standard residues; d marks the D form. Bridges are numbered along the chain shown (N, C = ends). Peptide text beside a SMILES is read from it. I, II: the chains in the order shown. [ ]: non-standard residue; d: D form. The star is where a group is joined. * marks the point of attachment. Quinoxaline2carbonyl = O=C(c1cnc2ccccc2n1)*; X56 = CC(C)C(C)C(C(=O)[*:2])N(C)[*:1]; Picolinoyl(3-OH) = O=C(c1ncccc1O)*; NMePhg = CN[CH](C(=O)O)c1ccccc1; Hyp = O=C(O)[CH]1C[CH](O)CN1; NMeV = CN[CH](C(=O)O)C(C)C; NMeC = CN[CH](CS)C(=O)O; Sar = CNCC(=O)O

Experiments:
Assay in all cases: growth of human tumour cells (NCI), 48 h
IGROV-1 = tested on: IGROV-1
SN12C = tested on: SN12C
NCI/ADR-RES = tested on: NCI/ADR-RES
KM12 = tested on: KM12
SF-539 = tested on: SF-539
NCI-H522 = tested on: NCI-H522
HCC 2998 = tested on: HCC 2998
OVCAR-3 = tested on: OVCAR-3
SK-MEL-28 = tested on: SK-MEL-28
HOP-92 = tested on: HOP-92
UACC-257 = tested on: UACC-257
RXF 393 = tested on: RXF 393
OVCAR-5 = tested on: OVCAR-5
SNB-19 = tested on: SNB-19
SK-OV-3 = tested on: SK-OV-3
K562 = tested on: K562
SNB-75 = tested on: SNB-75
Malme-3M = tested on: Malme-3M
HCT-15 = tested on: HCT-15
ACHN = tested on: ACHN

Structure (SMILES)	GI50 (IGROV-1)	GI50 (SN12C)	GI50 (NCI/ADR-RES)	GI50 (KM12)	GI50 (SF-539)	GI50 (NCI-H522)	GI50 (HCC 2998)	GI50 (OVCAR-3)	GI50 (SK-MEL-28)	GI50 (HOP-92)	GI50 (UACC-257)	GI50 (RXF 393)	GI50 (OVCAR-5)	GI50 (SNB-19)	GI50 (SK-OV-3)	GI50 (K562)	GI50 (SNB-75)	GI50 (Malme-3M)	GI50 (HCT-15)	GI50 (ACHN)
CC1NC(=O)C(NC(=O)c2cnc3ccccc3n2)COC(=O)C(C(C)C)N(C)C(=O)C2CSSCC(C(=O)N(C)C(C(C)C)C(=O)OCC(NC(=O)c3cnc4ccccc4n3)C(=O)NC(C)C(=O)N2C)N(C)C1=O (stereo not drawn) (I: Quinoxaline2carbonyl-SA[NMeC][NMeV] / II: Quinoxaline2carbonyl-SA[NMeC][NMeV]; ester I:1-II:C, I:C-II:1; disulfide I:3-II:3; configuration not given here)	< 0.01 µM (active)	< 0.01 µM (active)	< 0.01 µM (active)	< 0.01 µM (active)	< 0.01 µM (active)	< 0.01 µM (active)	< 0.01 µM (active)	< 0.01 µM (active)	< 0.01 µM (active)	< 0.01 µM (active)	< 0.01 µM (active)	< 0.01 µM (active)	< 0.01 µM (active)	< 0.01 µM (active)	< 0.01 µM (active)	< 0.01 µM (active)	< 0.01 µM (active)	< 0.01 µM (active)	< 0.01 µM	< 0.01 µM (active)
CCOC(=O)C(CC(C)C)NC(=O)C(Cc1ccc(N(CCCl)CCCl)cc1)NC(C)=O (stereo not drawn)	11.2 µM (inactive)	2.45 µM (inactive)	18.1 µM (inactive)	20.7 µM (inactive)	2.18 µM (inactive)	1.57 µM (inactive)	13.2 µM (inactive)	4.56 µM (inactive)	5.64 µM (inactive)	0.63 µM (active)	3.74 µM (inactive)	1.93 µM (inactive)	12.7 µM (inactive)	14 µM (inactive)	15.8 µM (inactive)	4.81 µM (inactive)	5.96 µM (inactive)	2.44 µM (inactive)	9.71 µM	2.08 µM (inactive)
CC1C(c2ccc(N(C)C)cc2)c2cc3c(cc2OC1N1CCCC1)OCO3 (stereo not drawn)	> 65.8 µM (inactive)	63.1 µM (inactive)	33.6 µM (inactive)	47.2 µM (inactive)	21.7 µM (inactive)	29.5 µM (inactive)	34.6 µM (inactive)	43.5 µM (inactive)	> 72.8 µM (inactive)	6.25 µM (inactive)	> 92.5 µM (inactive)	22.9 µM (inactive)	> 87.1 µM (inactive)	48.3 µM (inactive)	–	32.5 µM (inactive)	> 34.4 µM (inactive)	40.7 µM (inactive)	36.9 µM	> 72.9 µM (inactive)
COC1C(O)C(C)OC(O[C@@H]2C[C@H]3CC[C@@H]4[C@H](CC[C@]5(C)[C@@H](C6=CC(=O)OC6)CC[C@]45O)[C@@]3(C)[C@H](O)C2)C1O (stereo partly drawn)	0.145 µM (active)	< 0.01 µM (active)	< 0.0443 µM (active)	0.296 µM (active)	< 0.01 µM (active)	< 0.01 µM (active)	0.719 µM (active)	< 0.0258 µM (active)	0.216 µM (active)	0.106 µM (active)	0.1 µM (active)	< 0.0161 µM (active)	0.114 µM (active)	0.264 µM (active)	< 0.0193 µM (active)	0.0785 µM (active)	0.126 µM (active)	< 0.0396 µM (active)	0.0826 µM	< 0.0212 µM (active)
CCN1CCN(c2nc3ccccc3nc2C(=O)c2ccc(OC)c(OC)c2)CC1	16.6 µM (inactive)	42.1 µM (inactive)	1.6 µM (inactive)	15.4 µM (inactive)	1.73 µM (inactive)	12 µM (inactive)	2.3 µM (inactive)	22.2 µM (inactive)	13.5 µM (inactive)	7.48 µM (inactive)	21.9 µM (inactive)	12.2 µM (inactive)	41.7 µM (inactive)	24 µM (inactive)	12.1 µM (inactive)	12.6 µM (inactive)	12.9 µM (inactive)	16.4 µM (inactive)	13.7 µM	9.91 µM (inactive)
CSCC[C@@H]1C(=O)N(C)[C@H](C(C)(C)C)N1C(=O)c1ccccc1	> 100 µM (inactive)	> 100 µM (inactive)	> 100 µM (inactive)	> 100 µM (inactive)	> 100 µM (inactive)	> 100 µM (inactive)	> 100 µM (inactive)	> 100 µM (inactive)	> 100 µM (inactive)	> 100 µM (inactive)	> 100 µM (inactive)	> 100 µM (inactive)	> 100 µM (inactive)	> 100 µM (inactive)	> 100 µM (inactive)	> 100 µM (inactive)	> 100 µM (inactive)	> 100 µM (inactive)	> 100 µM	–
CC(C)CC1NC(=O)C(NC(=O)c2ncccc2O)C(C)OC(=O)C(c2ccccc2)N(C)C(=O)C(C)NC(=O)C(C(C)C(C)C)N(C)C(=O)CN(C)C(=O)C2CC(O)CN2C1=O (stereo not drawn) ({Picolinoyl(3-OH)}-TL[Hyp][Sar][X56]A[NMePhg]; ester 1-C; configuration not given here)	23.8 µM (inactive)	65.8 µM (inactive)	> 125 µM (inactive)	80.4 µM (inactive)	74.5 µM (inactive)	124 µM (inactive)	78.7 µM (inactive)	104 µM (inactive)	102 µM (inactive)	74.1 µM (inactive)	58.2 µM (inactive)	> 125 µM (inactive)	> 125 µM (inactive)	115 µM (inactive)	> 125 µM (inactive)	61.8 µM (inactive)	36.7 µM (inactive)	55.5 µM (inactive)	105 µM	–
C[Si](C)(OCCS(=O)(=O)O)C1S(=O)(=O)OCCOS1(=O)=O	> 100 µM (inactive)	> 100 µM (inactive)	45.4 µM (inactive)	91.6 µM (inactive)	23.9 µM (inactive)	68.1 µM (inactive)	35.5 µM (inactive)	> 100 µM (inactive)	> 100 µM (inactive)	23.8 µM (inactive)	> 100 µM (inactive)	21.7 µM (inactive)	> 100 µM (inactive)	36.8 µM (inactive)	79.4 µM (inactive)	70 µM (inactive)	20.5 µM (inactive)	> 100 µM (inactive)	67.5 µM	35.9 µM (inactive)
CC(C)(C)c1ccc(OCCOc2ccc(C(C)(C)C)cc2NC=O)c(NC=O)c1	11.3 µM (inactive)	15 µM (inactive)	5.68 µM (inactive)	3.77 µM (inactive)	8.77 µM (inactive)	6.7 µM (inactive)	5.12 µM (inactive)	14.4 µM (inactive)	12.3 µM (inactive)	7 µM (inactive)	5.85 µM (inactive)	8.77 µM (inactive)	22.4 µM (inactive)	18.2 µM (inactive)	20.9 µM (inactive)	4.14 µM (inactive)	19.3 µM (inactive)	8.79 µM (inactive)	3.81 µM	7.78 µM (inactive)
CN(NC(=O)c1ccc(Cl)cc1)C1=NCCCCN1	> 100 µM (inactive)	–	> 100 µM (inactive)	> 100 µM (inactive)	> 100 µM (inactive)	> 100 µM (inactive)	> 100 µM (inactive)	> 100 µM (inactive)	> 100 µM (inactive)	> 100 µM (inactive)	> 100 µM (inactive)	> 100 µM (inactive)	> 100 µM (inactive)	> 100 µM (inactive)	> 100 µM (inactive)	> 100 µM (inactive)	> 100 µM (inactive)	> 100 µM (inactive)	> 100 µM	> 100 µM (inactive)
COC(=O)c1nc(-c2ccc3c(n2)C(=O)C(=N)C(OC)=C3O)c(N)c(-c2ccc(OC)c(OC)c2O)c1C	1.7 µM (inactive)	1.16 µM (inactive)	1.3 µM (inactive)	1.68 µM (inactive)	0.363 µM (active)	1.06 µM (active)	0.128 µM (active)	0.445 µM (active)	1.33 µM (inactive)	2.16 µM (inactive)	0.419 µM (active)	1.58 µM (inactive)	2.14 µM (inactive)	0.628 µM (active)	1.18 µM (inactive)	1.93 µM (inactive)	0.984 µM (active)	0.524 µM (active)	1.13 µM	–
COc1ccc(C2C3CCCC(C3=O)C(c3ccc(OC)cc3)N2N=O)cc1 (stereo not drawn)	35.5 µM (inactive)	18.5 µM (inactive)	32.4 µM (inactive)	29.6 µM (inactive)	> 10 µM (inactive)	17.1 µM (inactive)	28.9 µM (inactive)	6.71 µM (inactive)	40.3 µM (inactive)	41.7 µM (inactive)	27.9 µM (inactive)	18.9 µM (inactive)	> 55.6 µM (inactive)	36.3 µM (inactive)	37.4 µM (inactive)	23.9 µM (inactive)	26.5 µM (inactive)	7.85 µM (inactive)	36.9 µM	–
CCCSCC(P(=O)(O)O)P(=O)(O)O.NC1CCCCC1	> 100 µM (inactive)	> 100 µM (inactive)	> 100 µM (inactive)	7.46 µM (inactive)	> 100 µM (inactive)	> 100 µM (inactive)	> 100 µM (inactive)	55.7 µM (inactive)	> 100 µM (inactive)	> 100 µM (inactive)	> 100 µM (inactive)	> 100 µM (inactive)	> 100 µM (inactive)	> 100 µM (inactive)	> 100 µM (inactive)	> 100 µM (inactive)	> 100 µM (inactive)	> 100 µM (inactive)	> 100 µM	–
